Assay results published in patent publication US7258999B2, “PTH responsive gene” (Wyeth, priority 2002, dated 2007).

Legend:
PAIGB mRNA = experiment: In situ hybridization of PAIGB mRNA in mouse calvariae; format: in vivo; settings: Swiss Webster mice, 100 μg/kg/day sc, 30 days
Procedure: In situ analysis of PAIGB mRNA expression can be assessed in various animal species including human bone biopsy samples or from mouse, rat, dog bone samples etc., that have been treated with bone forming agents. Swiss Webster mice that have been treated with 100 μg/kg/day PTH 1-34 subcutaneously or 30 days. Mouse calvariae were gently dissected and fixed in 4% paraformaldehyde. Following fixation, the bones were decalcified in TBD-2 decalcifying agent (Shandon Lipshaw, Pittsburgh, Pa.) for 7-8 hrs then dehydrated in graded alcohol. The calvariae was subsequently bisected perpendicular to the sagittal suture through the central portion of the parietal bones parallel to the lambdoidal and coronal sutures and embedded in paraffin (femur and tibia samples are embedded longitudinally in paraffin). Four to six 5 μm-thick representative, non-consecutive step sections were cut for further analysis. Selected sections were stained with hematoxylin and eosin (Shandon Lipshaw, Pittsburgh, Pa.) and adjacent section were used for in situ hybridization. […] The expression of mRNA are evaluated using a Nikon microscope with either bright or dark field.

[1] = test system: Ovariectomized Rats with Established Osteopenia; experiment: pQCT total and trabecular density (BMD) of proximal tibia in OVX rats; format: in vivo, rat; settings: for ΔTotal Density / ΔTrabecular Density: 40 μg/kg sc, mean ± SEM
Procedure: The total density of the proximal tibia was evaluated in anesthetized rats using peripheral quantitative computed tomography (pQCT) with XCT-960M (Stratec Medizintechnik, Pforzheim, Germany). The baseline and post-treatment measurements were performed in anesthetized rats as follows: The right hind limb was passed through a polycarbonate tube with a diameter of 25 mm and taped to an acrylic frame with the ankle joint at a 90° angle and the knee joint at 180°. The polycarbonate tube was affixed to a sliding platform that maintained it perpendicular to the aperture of the pQCT. The platform was adjusted so that the distal end of the femur and the proximal end of the tibia would be in the scanning field. A two dimensional scout view was run for a length of 10 mm and a line resolution of 0.2 mm. […] The pQCT scan was initiated 3.4 mm distal from this point. […] A region of interest including the tibia but excluding the fibula was outlined. The soft tissue was automatically removed using an iterative algorithm. The density of the remaining bone (Total density) was reported in mg/cm^3. The change in total density was calculated for each animal by subtracting post-treatment and baseline total density values.
Female Wister rats 4 weeks of age were treated with vehicle (saline) and human PTH (1-34) at a dose of 40 μg/kg of body weight for eight days. Prior to PTH administration animals were ovariectomized (OVX). Three weeks post OVX total BMD was measured to determine if osteopenia was established. Subcutaneous injection of PTH once a day represented intermittent administration of PTH, while osmotic pump with release rate of 40 μg/kg/day implanted under the skin represented continuous way of PTH administration. On the eight day of treatment, 6 hours post treatment animals were scarified and samples were collected for further analysis. Each treatment group contained 8 animals.
PTH (1-34) in a dose of 40 μg/kg was administered for eight days to the 3 weeks OVX rats in intermitted and continuous manner to induce anabolic and catabolic PTH effects respectively. As described in General Method section, intermittent administration of PTH was presented by once a day subcutaneous injection of PTH while continues administration was presented with osmotic pumps implanted under the skin with release rate of 40 μg/kg a day. Total bone mineral density was measured using pQCT. Intermittent PTH injection induced significant increases in total BMD, with Δ BMD of […] (FIG. 1). […] Thus, PTH exerts its effect on bone anabolic and catabolic (i.e., causing a decrease in BMD) depending of the way of its administration.
In order to examine whether changes in PAIGB expression with intermittent PTH treatment correlates with effects of PTH on bone, samples from rats treated with PTH for 2, 4 and 8 days were subjected to BMD measurements for both total and trabecular bone (trabecular density of proximal tibia was measured). Two days PTH treatment increases expression of PAIGB. At the same time point significant increase in trabecular BMD (Δ trabecular density: 6.98+/−17.90 with PTH treatment vs −27.1+/−9.27 with vehicle treatment) was detected without any significant changes in total BMD (Δ total density: −9.15+/−2.94 PTH vs 0.69+/−4.10 vehicle) (Table 1).

PAIGB protein = experiment: Immunohistochemistry of PAIGB protein in mouse calvariae; format: in vivo; settings: Swiss Webster mice, 20 μg/kg/day sc onto the calvariae, 18 days
Procedure: Immunohistochemical analysis of PAIGB protein express can be assessed in various animal species such as human bone biopsy samples, mouse, rat, or dog bone samples etc., that have been treated with potential bone anabolic agents. For example, Swiss Webster mice were treated with 20 μg/kg/day PTH 1-34 subcutaneously onto the calvariae for 18 days. Following the 18 days, the calvariae samples were harvested and PAIGB protein expression was analyzed using the PAIGB polyclonal antibody (FIG. 20, FIG. 21 and FIG. 22).
The mouse calvariae was gently dissected and fixed in 10% phosphate-buffered formalin. After fixation, the calvariae were decalcified in TBD-2 decalcifying agent (SHANDON, Cat. # 6764003) for 7-8 hrs, dehydrated in graded alcohol, embedded in paraffin. The calvariae was bisected perpendicular to the sagittal suture through the central portion of the parietal bones parallel to the lambdoidal and coronal sutures and embedded in paraffin. Four to six 5 μm-thick representative, non-consecutive step sections were cut. Various sections were stained with hematoxylin and eosin (H&E) (Sigma, St. Louis, Mo.) and adjacent section were used for immunohistochemistry. The bone samples were then deparafinized in xylene and rehydrated in graded ethanol and PBS. […] The peroxidase was detected using peroxidase substrate kit DAB (SK-4100, Vector Laboratories).

[2] = four days treatment, listed as HPTH (1–34)
[3] = four days treatment, listed as PTH
[4] = two days treatment, listed as HPTH (1–34)
[5] = two days treatment, listed as PTH

Question: human PTH (1-34) was tested. Which “PAIGB mRNA expression in calvariae (in situ hybridization)” value (PAIGB mRNA) did it give?
Answer: induced in osteoblastic cells adjacent to the bone surface in the periosteum

Question: What about the “change in total BMD” value ([1]; continuous: osmotic pump 40 μg/kg a day, eight days, 3 weeks OVX rats) of the same substance?
Answer: did not induce any changes

Question: And the “ΔTotal Density” value [1, 2]?
Answer: -10.56 ± 3.11 mg/mL

Question: And the “ΔTrabecular Density” value [1, 2]?
Answer: 8.70 ± 9.98 mg/mL

Question: What about the “ΔTotal Density” value [1, 3] of the same substance?
Answer: 10.56 ± 3.11 mg/mL

Question: What about the “ΔTrabecular Density” value [1, 3] of the same substance?
Answer: 8.70 ± 9.98 mg/mL

Question: And the Δ BMD (total BMD) ([1]; intermittent: 40 μg/kg once a day sc, eight days, 3 weeks OVX rats)?
Answer: 80 mg/cm³

Question: And the “ΔTotal Density” value [1, 4]?
Answer: -9.15 ± 2.94 mg/mL

Question: What about the “ΔTrabecular Density” value [1, 4] of the same substance?
Answer: 6.98 ± 17.90 mg/mL

Question: And the “ΔTotal Density” value [1, 5]?
Answer: -9.15 ± 2.94 mg/mL

Question: And the “ΔTrabecular Density” value [1, 5]?
Answer: 6.98 ± 17.90 mg/mL

Question: And the “PAIGB protein expression in calvariae (immunohistochemistry)” value (PAIGB protein)?
Answer: induced
